Data from patent US9096593B2, “Compounds and methods for kinase modulation, and indications therefor” (Plexxikon Inc., priority 2009, dated 2015).

Legend:
[1] = Turbidity assay of relative solubility in aqueous buffers; format: physicochemical; conditions: for turbidity threshold (L, M, H) 1.4: pH 1.4 as headed (method: SGF pH 1.5); for turbidity threshold (L, M, H) 4.5: pH 4.5 (SIF); for turbidity threshold (L, M, H) 6.8: pH 6.8 (SIF); for turbidity threshold (L, M, H) 7.4: pH 7.4 (HEPES)
Outline: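 Turbidity was read spectrophotometrically at 490, 535 and 650 nm, and the endpoint is the concentration where OD passes 0.01, as the mean of the three wavelengths. Compounds came from 25 mM DMSO stock in 1:1 serial dilutions, added to HEPES pH 7.4, SIF pH 6.8 or 4.5 (0.05M NaH2PO4), or SGF pH 1.5 (0.5M NaCl).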

BCR-KIT/BaF3 cells = BCR-KIT/BaF3 cells (Homo sapiens, UniProt P10721); assay: BCR-KIT/BaF3 cell proliferation assay (ATPlite); format: cell-based; conditions: read-out: BCR/BaF3 (IC50 μM) Kit
Sequence of BCR-KIT/BaF3 cells (P10721 26-976 limits assumed, change not shown): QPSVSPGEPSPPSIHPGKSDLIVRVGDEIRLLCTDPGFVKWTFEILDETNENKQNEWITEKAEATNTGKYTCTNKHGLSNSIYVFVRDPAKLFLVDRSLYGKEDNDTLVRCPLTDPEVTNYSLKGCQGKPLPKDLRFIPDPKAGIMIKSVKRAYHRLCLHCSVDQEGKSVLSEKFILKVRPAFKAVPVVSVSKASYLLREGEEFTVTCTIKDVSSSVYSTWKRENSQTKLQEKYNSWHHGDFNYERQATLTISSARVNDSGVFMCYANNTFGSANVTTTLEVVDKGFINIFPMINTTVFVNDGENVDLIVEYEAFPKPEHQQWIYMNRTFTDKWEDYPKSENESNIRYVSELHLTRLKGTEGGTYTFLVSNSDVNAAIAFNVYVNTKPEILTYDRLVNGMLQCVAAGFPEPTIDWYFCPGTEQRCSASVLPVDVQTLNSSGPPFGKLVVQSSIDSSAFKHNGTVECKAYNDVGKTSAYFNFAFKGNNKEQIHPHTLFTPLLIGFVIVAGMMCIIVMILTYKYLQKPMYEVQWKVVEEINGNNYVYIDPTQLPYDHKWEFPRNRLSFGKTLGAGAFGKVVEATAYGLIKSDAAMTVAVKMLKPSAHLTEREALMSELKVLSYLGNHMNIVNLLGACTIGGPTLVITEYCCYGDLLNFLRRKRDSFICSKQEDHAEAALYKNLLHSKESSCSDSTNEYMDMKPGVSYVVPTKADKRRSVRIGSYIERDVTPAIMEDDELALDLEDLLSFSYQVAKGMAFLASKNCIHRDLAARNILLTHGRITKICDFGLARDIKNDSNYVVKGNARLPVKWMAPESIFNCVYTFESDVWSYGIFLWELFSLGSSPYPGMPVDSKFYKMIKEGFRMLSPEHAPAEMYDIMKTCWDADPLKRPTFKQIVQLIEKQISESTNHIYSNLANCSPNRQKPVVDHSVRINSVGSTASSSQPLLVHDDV
Outline: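 BCR-KIT/BaF3 cells plated at 10,000/well in G418-containing medium without IL-3/WEHI; MV-4-11 at 25,000/well in medium with 10% FBS. Compound given as 8-point 1:3 titration, top 10 μM final, 3 days at 37 °C. Viability read as ATPlite luminescence; IC50 from concentration curve.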

SMILES | turbidity threshold (L, M, H) 1.4 [1] | turbidity threshold (L, M, H) 4.5 [1] | turbidity threshold (L, M, H) 6.8 [1] | turbidity threshold (L, M, H) 7.4 [1] | IC50 (BCR-KIT/BaF3 cells)
COc1ncc(CNc2ncc(Cc3c[nH]c4ncc(C)cc34)cn2)cc1F [Compound P-2073, (5-Fluoro-6-methoxy-pyridin-3-ylmethyl)-[5-(5-methyl-1H-pyrrolo[2,3-b]pyridin-3-ylmethyl)-pyrimidin-2-yl]-amine] | H (high solubility if the threshold concentration is >250 μM) | M (moderate solubility if the threshold concentration is 31.3 μM to 250 μM) | M (moderate solubility if the threshold concentration is 31.3 μM to 250 μM) | M (moderate solubility if the threshold concentration is 31.3 μM to 250 μM) | > 0.1 µM
Cc1cnc2[nH]cc(Cc3cnc(NCc4ccc(C(F)(F)F)nc4)c(F)c3)c2c1 [Compound P-2146, [3-Fluoro-5-(5-methyl-1H-pyrrolo[2,3-b]pyridin-3-ylmethyl)-pyridin-2-yl]-(6-trifluoromethyl-pyridin-3-ylmethyl)-amine] | H (high solubility if the threshold concentration is >250 μM) | M (moderate solubility if the threshold concentration is 31.3 μM to 250 μM) | M (moderate solubility if the threshold concentration is 31.3 μM to 250 μM) | L (low solubility if the threshold concentration is <31.3 μM) | > 0.1 µM
COc1ncc(CNc2ccc(Cc3c[nH]c4ncc(Cl)cc34)c(F)n2)cc1F [Compound P-2165, [5-(5-Chloro-1H-pyrrolo[2,3-b]pyridin-3-ylmethyl)-6-fluoro-pyridin-2-yl]-(5-fluoro-6-methoxy-pyridin-3-ylmethyl)-amine] | L (low solubility if the threshold concentration is <31.3 μM) | L (low solubility if the threshold concentration is <31.3 μM) | L (low solubility if the threshold concentration is <31.3 μM) | L (low solubility if the threshold concentration is <31.3 μM) | > 0.1 µM
Fc1cc(Cc2c[nH]c3ncc(Cl)cc23)cnc1NCc1ccc(C(F)(F)F)nc1 [Compound P-2172, [5-(5-Chloro-1H-pyrrolo[2,3-b]pyridin-3-ylmethyl)-3-fluoro-pyridin-2-yl]-(6-trifluoromethyl-pyridin-3-ylmethyl)-amine] | H (high solubility if the threshold concentration is >250 μM) | L (low solubility if the threshold concentration is <31.3 μM) | L (low solubility if the threshold concentration is <31.3 μM) | L (low solubility if the threshold concentration is <31.3 μM) | < 0.1 µM
CCS(=O)(=O)Nc1ccccc1CNc1ccc(Cc2c[nH]c3ncc(C)cc23)c(F)n1 [Compound P-2198, Ethanesulfonic acid (2-{[6-fluoro-5-(5-methyl-1H-pyrrolo[2,3-b]pyridin-3-ylmethyl)-pyridin-2-ylamino]-methyl}-phenyl)-amide] | M (moderate solubility if the threshold concentration is 31.3 μM to 250 μM) | L (low solubility if the threshold concentration is <31.3 μM) | L (low solubility if the threshold concentration is <31.3 μM) | L (low solubility if the threshold concentration is <31.3 μM) | > 0.1 µM
